Experimental data from patent US7196199B2, “Phenoxypropylamine compounds” (Mitsubishi Pharma Corporation, priority 1999, dated 2007).
pKi: −log10 of the molar value. Counter-ions that a name gives are not always drawn. Like-named read-outs stand apart in the source and are kept apart here.

Legend:
5-HT1A receptor [1] = biological target: T1, 5-HT1A receptor (Rattus norvegicus, UniProt P19327); test: 5-HT1A receptor binding test
T1 sequence (P19327 1-422): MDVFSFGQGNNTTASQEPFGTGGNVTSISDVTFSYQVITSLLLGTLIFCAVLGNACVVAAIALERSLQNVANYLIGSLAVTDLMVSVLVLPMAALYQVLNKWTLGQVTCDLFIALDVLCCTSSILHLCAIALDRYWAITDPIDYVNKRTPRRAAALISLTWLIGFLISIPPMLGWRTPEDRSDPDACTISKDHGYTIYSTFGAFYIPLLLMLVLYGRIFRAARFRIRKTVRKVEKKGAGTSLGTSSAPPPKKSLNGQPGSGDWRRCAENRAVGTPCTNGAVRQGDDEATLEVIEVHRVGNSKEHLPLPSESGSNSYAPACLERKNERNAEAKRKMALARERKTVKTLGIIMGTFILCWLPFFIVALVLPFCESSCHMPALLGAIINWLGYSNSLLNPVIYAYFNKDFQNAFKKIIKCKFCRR
Procedure: The experiment was conducted according to the method of M. D. Hall et al (J. Neurochem. 44, 1685–1696 (1985)).
Cryopreserved rat hippocampus was homogenized in a 20-fold wet weight amount of 50 mM Tris-HCl buffer (pH 7.4), and the homogenate was centrifuged at 500×g for 10 min. The supernatant was centrifuged at 40000×g for 10 min and the sediment was incubated at 37° C. for 10 min, which was followed by centrifugation at 40000×g for 10 min. To the sediment was added a 20-fold amount of 50 mM Tris-HCl buffer (pH 7.4) and the mixture was homogenized, which was followed by centrifugation again at 40000×g for 10 min. 50 mM Tris-HCl buffer (pH 7.4, 100-fold volume) containing 1 mM MnCl2 was added to the sediment and the mixture was homogenized, which was used as a membrane solution. To a 96 well plate were successively added a test solution ([…]), (^3H)-8-OH-DPAT ((±)-8-hydroxy-2-(DL-N-propylamino)tetraline, Sigma, lot No. 57H4131) solution (final concentration 2 nM, […]) and the membrane solution (0.45 ml) preincubated at 37° C., and incubated at 37° C. for 12 min. After completion, the reaction mixture was filtered through a GF/B glass filter and the filter was washed 5 times with 50 mM Tris-HCl buffer (pH 7.4). The radioactivity left on the filter was measured with a Top Count. For total binding measurement, 0.005N hydrochloric acid ([…]) was used, and for the measurement of nonspecific binding, a test solution containing WAY-100635 (final concentration […]) instead of the test substance was used. The total binding and nonspecific binding were measured in quadruplicate, and the test substance was measured in duplicate.
The IC50 value was calculated by two-point interpolation and Ki value was calculated according to the following equation using Kd value obtained from each measurement. Ki=IC50/(1+C/Kd)
IC50: concentration of 50% binding inhibition
C: concentration of ligand

5-HT transporter = biological target: T2, 5-HT transporter (Rattus norvegicus, UniProt P31652); test: 5-HT transporter binding test
T2 construct: Rat brain cortex was homogenized using Polytron; from tissue; host or cells: rat brain cortex membranes
Procedure: Rat brain cortex was homogenized using Polytron in ice-cooled 50 mmol/L Tris-HCl buffer (pH 7.4). After centrifugation at 1000×g and 4° C. for 10 min, the supernatant was transferred to a different centrifugation tube. This was centrifuged at 40000×g and 4° C. for 20 min, and 50 mmol/L Tris-HCl buffer (pH 7.4) was added to the sediment to give a suspension. This was incubated at 37° C. for 10 min, centrifuged at 40000×g and 4° C. for 20 min, and suspended in 50 mmol/L Tris-HCl buffer (pH 7.4) (diluted 100-fold of brain wet weight) containing 120 mmol/L NaCl and 5 mmol/L KCl, which was used as a membrane solution. For binding inhibition test, it was reacted with (^3H) paroxetine prepared to the final concentration of 0.2 nmol/L in a plastic test tube at 25° C. for 90 min. For total binding, a solvent was used and for nonspecific binding, fluvoxamine having a final concentration of 10 μmol/L was used.
Using a cell harvester, the reaction mixture was filtered through a GF/B glass filter treated with 0.1% polyethyleneimine to stop the reaction and washed 3 times with 3 mL of ice-cooled 50 mmol/L Tris-HCl buffer (pH 7.4). The radioactivity was measured using a β plate.

5-HT1A receptor [2] = biological target: T1, 5-HT1A receptor; test: Electrophysical evaluation of agonist/antagonist of 5-HT1A receptor (nystatin perforated patch clamp, dorsal raphe nuclei cell); type: cell-based; parameters: The isolated nerve cell (dorsal raphe nuclei cell) was subjected to nystatin perforated patch clamp method; endogenous in cells; host or cells: acutely dissociated dorsal raphe nuclei neurons of 2-week-old male Wistar rat; conditions: 10^−7 mol/L, isolated rat dorsal raphe nuclei cell; for antagonistic action (% of control) of the test substance on the 8-OH-DPAT induced inward K+ current: 8-OH-DPAT 10^−7 mol/L
Procedure: The experiment followed the method of Katayama et al (Brain Res.; 745, 283–292, 1997).
The brain of 2-week-old male Wistar rat was extracted, and a brain thin section (thickness 350 μm) containing dorsal raphe nuclei was prepared using a microslicer. The brain thin section was treated in Ringer's solution containing pronase (0.4 mg/mL) and protease type X (0.25 mg/mL) at 30° C. for 25 min and 15 min, respectively, and the dorsal raphe nuclei region was micropunched out. The brain thin section punched out was subjected to pipetting in a culture dish filled with the Ringer's solution to isolate the nerve cell. The isolated nerve cell (dorsal raphe nuclei cell) was subjected to nystatin perforated patch clamp method (Akaike & Harata, Jpn. J. Physiol.; 44, 433–437, 1994) and the inward K^+ current induced by the test substance and the like was measured under membrane voltage-clamp condition (VH=−60 mV). For the measurement of the inward K^+ current via the 5-HT1A receptor, an extracellular solution and a patch pipette solution having the following compositions were used simultaneously. • extracellular solution (mmol/L): NaCl, 135; KCl, 20; MgCl2, 1; CaCl2, 2; D-glucose, 10; HEPES, 10; tetrodotoxin, 3×10^−4; LaCl3, 10 • patch pipette solution (mmol/L): KCl, 150; HEPES, 10
To the above-mentioned patch pipette solution was added nystatin. (Sigma, Lot No. 33H0762) to the final concentration of 75 μg/mL before the electric measurement.
The current response was measured with a voltage clamp amplifier (List Medical, L/M-EPC7), and the obtained results were recorded on a chart of a recticorder (Nihondenki Sanei, RECTIHORIZ-8K), digitized by a PCM recording device (NF electric Instruments, RP-882) and videotaped by a VCR (Panasonic, NV-G40).
The administration of the test substance and the like followed a Y-tube method (Murase et al., Brain Res.; 525, 84–91, 1990).
First, 8-OH-DPAT (10^−7 mol/L) was administered to the isolated nerve cell (dorsal raphe nuclei cell) obtained above, and the level of the inward K^+ current response was measured.
8-OH-DPAT was washed out for 2 min from the above-mentioned cells and the test substance and pindolol (reference substance which is an antagonist) were administered for 1 min, and the level of the inward K^+ current response by each of them was measured. From immediately after administration of the test substance or the reference substance, a mixture of 8-OH-DPAT ([…]) and the test substance or reference substance was administered, and the level of the induced inward K^+ current response was measured. The measurement results and the level of the current response in the same cell by 8-OH-DPAT alone were compared, based on which the antagonistic action on the 8-OH-DPAT induction current was considered. Every current response was expressed upon standardizing according to the following calculation equation based on the level of the 8-OH-DPAT (10^−7 mol/L) induction current in the same cell.
The inward K^+ current response inducing action (5-HT1A agonistic action) by the test substance alone was determined from the following equation. inward K^+ current response inducing action (%) by test substance alone=(ITD÷IDPAT)×100 • ITD: level of inward K^+ current response by test substance alone • IDPAT: level of 8-OH-DPAT (10^−7 mol/L) induced inward K^+ current in the same cell
The suppressive effect (5-HT1A antagonistic action) on the 8-OH-DPAT induced inward K^+ current by the test substance was determined according to the following equation. antagonistic action of test substance on 8-OH-DPAT induced inward K^+ current (% of control)=(IMIX÷IDPAT)×100
IMIX: level of 8-OH-DPAT (10^−7 mol/L) induced inward K^+ current in the presence of test substance

[3] = rat hippocampus membrane, (3H)-8-OH-DPAT 2 nM, read-out: 5-HT1A receptor binding Ki value
[4] = rat brain cortex membrane, (3H) paroxetine 0.2 nmol/L, read-out: 5-HT transporter binding Ki value

T2 sequence (P31652 whole entry): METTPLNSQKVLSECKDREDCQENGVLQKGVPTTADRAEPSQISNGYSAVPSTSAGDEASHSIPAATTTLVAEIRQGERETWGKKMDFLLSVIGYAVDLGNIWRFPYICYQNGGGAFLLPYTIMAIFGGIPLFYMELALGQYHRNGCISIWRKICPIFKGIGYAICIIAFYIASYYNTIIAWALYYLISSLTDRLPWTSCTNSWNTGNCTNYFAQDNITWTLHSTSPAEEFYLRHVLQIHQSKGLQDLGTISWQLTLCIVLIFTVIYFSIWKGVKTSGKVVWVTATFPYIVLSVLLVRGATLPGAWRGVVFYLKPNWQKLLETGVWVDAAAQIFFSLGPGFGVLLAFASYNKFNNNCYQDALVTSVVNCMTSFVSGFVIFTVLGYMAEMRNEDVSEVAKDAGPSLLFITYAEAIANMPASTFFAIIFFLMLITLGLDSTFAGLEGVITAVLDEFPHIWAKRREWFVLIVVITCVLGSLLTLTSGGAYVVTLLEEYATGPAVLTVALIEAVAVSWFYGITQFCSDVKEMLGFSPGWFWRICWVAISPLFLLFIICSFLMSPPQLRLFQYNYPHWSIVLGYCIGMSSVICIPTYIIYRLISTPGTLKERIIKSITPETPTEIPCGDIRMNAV

COc1ccc(C2CCN(C[C@H](O)COc3cccc4oc(-c5nnc(C)o5)cc34)CC2)cc1Cl.Cl
melting point: 218 to 220 °C

Cc1nnc(-c2cc3c(OC[C@@H](O)CN4CCC(c5ccc(Cl)c(C)c5)CC4)cccc3o2)o1.Cl
melting point: 184 to 186 °C

Cc1nnc(-c2cc3c(OC[C@@H](O)CN4CCC(c5ccc(Cl)c(F)c5)CC4)cccc3o2)o1.Cl
melting point: 139 to 141 °C

Cc1nnc(-c2cc3c(OC[C@@H](O)CN4CC=C(c5ccc6ccoc6c5)CC4)cccc3o2)o1.Cl
melting point: 135 to 138 °C

C=C(C)c1nnc(-c2cc3c(OC[C@@H](O)CN4CCC(c5ccc6c(c5)OCO6)CC4)cccc3o2)o1.Cl
melting point: 128 to 130 °C

Cc1nnc(-c2cc3c(OC[C@@H](O)CN4CCC(c5ccc(C)c(Cl)c5)CC4)cccc3o2)o1 (as salt: hydrochloride)
melting point: 188 to 190 °C

Cc1nnc(-c2cc3c(OC[C@@H](O)CN4CCC(c5ccc6c(c5)CCCS6)CC4)cccc3o2)o1 (as salt: hydrochloride)
melting point: 223 to 225 °C

Cc1nnc(-c2cc3c(OC[C@@H](O)CN4CCC(c5ccc(Cl)c(C(F)(F)F)c5)CC4)cccc3o2)o1 (as salt: hydrochloride) [Example 234, (S)-1-(4-(4-chloro-3-trifluoromethylphenyl)piperidino)-3-(2-(5-methyl-1,3,4-oxadiazol-2-yl)benzo(b)furan-4-yloxy)-2-propanol hydrochloride]
melting point: 222 to 224 °C

CON(C)C(=O)c1cc2c(OC[C@@H](O)CN3CCC(c4ccc5ccccc5c4)CC3)cccc2o1 [Example 6, (S)-4-(2-hydroxy-3-(4-(naphthalen-2-yl)piperidino)propyloxy)-N-methoxy-N-methylbenzo(b)furan-2-carboxamide]
pKi (5-HT1A receptor [1]; [3]): 8.64 | pKi (5-HT transporter; [4]): 8.96 | antagonistic action (% of control) of the test substance on the 8-OH-DPAT induced inward K+ current (5-HT1A receptor [2]): almost nil | agonist/antagonist character at 5-HT1A receptor (5-HT1A receptor [2]): silent antagonists | inward K+ current inducing action (%) by the test substance alone (5-HT1A receptor [2]): almost nil

Cc1nnc(-c2cc3c(OC[C@@H](O)CN4CCC(c5ccc(Cl)c(Cl)c5)CC4)cccc3o2)o1 [Example 88, (S)-1-(4-(3,4-dichlorophenyl)piperidino)-3-(2-(5-methyl-1,3,4-oxadiazol-2-yl)benzo(b)furan-4-yloxy)-2-propanol hydrochloride 1/4 hydrate]
pKi (5-HT1A receptor [1]; [3]): 9.12 | pKi (5-HT transporter; [4]): 9.49 | antagonistic action (% of control) of the test substance on the 8-OH-DPAT induced inward K+ current (5-HT1A receptor [2]): almost nil | agonist/antagonist character at 5-HT1A receptor (5-HT1A receptor [2]): silent antagonists | inward K+ current inducing action (%) by the test substance alone (5-HT1A receptor [2]): almost nil

OCc1nnc(-c2cc3c(OC[C@@H](O)CN4CCC(c5ccc(Cl)c(Cl)c5)CC4)cccc3o2)o1 [Example 136, (S)-3-(4-(3,4-dichlorophenyl)piperidino)-1-(2-(5-hydroxymethyl-1,3,4-oxadiazol-2-yl)benzo(b)furan-4-yloxy)-2-propanol]
pKi (5-HT1A receptor [1]; [3]): 9.43 | pKi (5-HT transporter; [4]): 9.74 | antagonistic action (% of control) of the test substance on the 8-OH-DPAT induced inward K+ current (5-HT1A receptor [2]): almost nil | agonist/antagonist character at 5-HT1A receptor (5-HT1A receptor [2]): silent antagonists | inward K+ current inducing action (%) by the test substance alone (5-HT1A receptor [2]): almost nil

CC(C)c1nnc(-c2cc3c(OC[C@@H](O)CN4CCC(c5ccc6c(c5)OCO6)CC4)cccc3o2)o1 [Example 138, (S)-1-(2-(5-(1-methylethyl)-1,3,4-oxadiazol-2-yl)benzo(b)furan-4-yloxy)-3-(4-(3,4-methylenedioxyphenyl)piperidino)-2-propanol hydrochloride]
pKi (5-HT1A receptor [1]; [3]): 9.17 | pKi (5-HT transporter; [4]): 8.80 | antagonistic action (% of control) of the test substance on the 8-OH-DPAT induced inward K+ current (5-HT1A receptor [2]): almost nil | agonist/antagonist character at 5-HT1A receptor (5-HT1A receptor [2]): silent antagonists | inward K+ current inducing action (%) by the test substance alone (5-HT1A receptor [2]): almost nil

Cc1nnc(-c2cc3c(OC[C@@H](O)CN4CC=C(c5ccc6occc6c5)CC4)cccc3o2)o1 [Example 238, (S)-1-(4-(benzo(b)furan-5-yl)-5,6-dihydro-2H-pyridin-1-yl)-3-(2-(5-methyl-1,3,4-oxadiazol-2-yl)benzo(b)furan-4-yloxy)-2-propanol]
melting point: 168 to 170 °C

O[C@H](COc1cccc2[nH]ccc12)CN1CCC(O)(c2ccc3ccccc3c2)CC1 [compound for reference, (S)-1-(4-indolyloxy)-3-[4-hydroxy-4-(2-naphthyl)piperidino]propan-2-ol, reference compound]
pKi (5-HT1A receptor [1]): 9.80 | pKi (5-HT transporter): 7.26 | agonist/antagonist character at 5-HT1A receptor (5-HT1A receptor [2]): partial agonist
